{
  "source": "paper PMC3573960",
  "about": "(Molecular Neurodegeneration, 2012)",
  "key": {"[1]": {"test_system": "Tg2576 mice", "details": "mean (sem)", "source_text": "Male Tg2576 and WT mice were both derived from crosses of male Tg2576 mice and female B6SJLF1 mice (Taconic) and were singly housed upon arrival. […] Some animals were euthanized as described above. For histological studies, a subset of mice were euthanized by CO2 asphyxiation and transcardially perfused with cold 0.9% NaCl. […] The left cerebral hemisphere was cut into 2 pieces, weighed, and frozen.\nThe right hemispheres were sectioned at 20 μm in the sagittal plane. From 12 levels, 7 sections were retained and processed. Aβ plaque load was quantified in sections doubly stained by immunohistochemistry with 6E10 antibody (N-terminal human Aβ, aa 1–16) and by ThioflavinS. Astrocytes were immunostained using a primary rabbit polyclonal antibody against GFAP (Dako, Glostrup, Denmark) and a fluorescently labelled secondary Cy2 antibody (Jackson ImmunoResearch Laboratories, West Grove, PA). Activated microglia were immunostained using a rat anti-murine CD11b primary antibody (AbD Serotec, Kidlington, UK) and a fluorescently labelled secondary Cy3 antibody (Jackson ImmunoResearch Laboratories). Astrocytes and microglia were labelled in a double incubation and sections were counterstained with DAPI to visualize cell nuclei.\nHippocampus and neocortex were measured separately, and the percent area of immunoreactivity or ThioflavinS staining per brain region was evaluated using automated image analysis software (Image Pro Plus, v. 6.2, Media Cybernetics, Bethesda, MD). Numbers and sizes of Aβ deposits were also counted automatically. Measurements from 5 sections per mouse were averaged and the individual mouse average was used to calculate the group means."}, "[2]": {"test_system": "Aph1AL containing γ-secretase complexes", "experiment": "Cell-free γ-secretase assay, Aβ1-40 and Aβ1-42 by AlphaLisa", "assay_type": "biochemical, murine", "excerpt": "DAPT was used as a reference positive control for the assay. For each assay condition, a 5-μL microsomal fraction, containing 1% CHAPSO (3-[(3-cholamidopropyl)dimethylammonio]-2-hydroxy-1-propanesulfonate) from murine embryonic fibroblasts (MEF) lacking the Aph-1A, Aph-1B, and Aph-1C genes [60] […] The other half of the reaction mixture was used to analyze the levels of Aβ1-40 and Aβ1-42 by AlphaLisa (Perkin Elmer, Waltham, MA)."}, "[3]": {"experiment": "MTS cytotoxicity assay in H4-APP751 cells", "details": "human", "quoted_text": "Cytotoxicity was evaluated using CellTiter 96® AQueous One Solution Cell Proliferation Assay (MTS Assay, Promega, Madison, WI) according to the manufacturer’s protocol."}, "[4]": {"molecular_target": "T1, COX-2 (Homo sapiens, UniProt P35354)", "T1 construct": "purchased Cerep (Redmond, WA) 0727; host or cells: Sf9", "T1 sequence (P35354 18-604)": "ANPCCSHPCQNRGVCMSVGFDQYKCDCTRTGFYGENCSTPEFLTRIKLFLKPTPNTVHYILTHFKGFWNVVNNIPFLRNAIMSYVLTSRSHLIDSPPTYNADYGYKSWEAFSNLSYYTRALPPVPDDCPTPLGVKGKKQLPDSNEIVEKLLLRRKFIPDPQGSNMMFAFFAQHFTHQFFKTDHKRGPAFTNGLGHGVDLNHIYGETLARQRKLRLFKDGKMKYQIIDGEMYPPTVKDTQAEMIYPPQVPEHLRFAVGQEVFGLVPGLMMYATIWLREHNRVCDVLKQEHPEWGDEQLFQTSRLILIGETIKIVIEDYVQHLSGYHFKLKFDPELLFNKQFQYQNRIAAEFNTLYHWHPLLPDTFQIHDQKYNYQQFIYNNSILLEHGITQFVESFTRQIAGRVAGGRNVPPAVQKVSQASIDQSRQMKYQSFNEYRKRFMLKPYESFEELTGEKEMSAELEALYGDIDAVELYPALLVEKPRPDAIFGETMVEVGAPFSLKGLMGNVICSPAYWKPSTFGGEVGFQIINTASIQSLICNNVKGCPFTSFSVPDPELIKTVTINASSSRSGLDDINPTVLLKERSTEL", "experiment": "COX-2 enzyme assay (Cerep)", "assay_type": "biochemical", "details": "at 30 μM, human recombinant, arachidonic acid 2 μM", "description": "(§1) COX-1 and COX-2 enzyme assays were performed by Cerep (Redmond, WA, Catalog # 0726 and 0727). Briefly, the assays used human recombinant Sf9 cells and arachidonic acid (4 μM for COX-1 and 2 μM for COX-2) as the substrate. Production of PGE2 was detected by enzyme immunoassay."}, "[5]": {"test_system": "Tg2576 mice", "experiment": "Contextual fear conditioning assay", "quoted_text": "Animals in the food formulation groups were maintained on the compound formulated diets. The training session on day 1 consisted of the following sequence: 3 min acclimation to the test chamber (Kinder Scientific, Poway, CA), 2 s 1.5 mA foot shock, 2 min wait period, another 2 s 1.5 mA foot shock, followed by a final 1 min wait period. On day 2, testing consisted of returning the animals to the chamber for 5 min and the total time spent freezing was measured by an automated software system (Kinder Scientific). […] Percentage of time spent freezing for each mouse was calculated using the formula: (number of seconds with zero beam breaks/300) X 100."}, "[6]": {"molecular_target": "T2, COX-1 (Homo sapiens, UniProt P23219)", "T2 construct": "purchased Cerep (Redmond, WA) 0726; host or cells: Sf9", "T2 sequence (P23219 24-599)": "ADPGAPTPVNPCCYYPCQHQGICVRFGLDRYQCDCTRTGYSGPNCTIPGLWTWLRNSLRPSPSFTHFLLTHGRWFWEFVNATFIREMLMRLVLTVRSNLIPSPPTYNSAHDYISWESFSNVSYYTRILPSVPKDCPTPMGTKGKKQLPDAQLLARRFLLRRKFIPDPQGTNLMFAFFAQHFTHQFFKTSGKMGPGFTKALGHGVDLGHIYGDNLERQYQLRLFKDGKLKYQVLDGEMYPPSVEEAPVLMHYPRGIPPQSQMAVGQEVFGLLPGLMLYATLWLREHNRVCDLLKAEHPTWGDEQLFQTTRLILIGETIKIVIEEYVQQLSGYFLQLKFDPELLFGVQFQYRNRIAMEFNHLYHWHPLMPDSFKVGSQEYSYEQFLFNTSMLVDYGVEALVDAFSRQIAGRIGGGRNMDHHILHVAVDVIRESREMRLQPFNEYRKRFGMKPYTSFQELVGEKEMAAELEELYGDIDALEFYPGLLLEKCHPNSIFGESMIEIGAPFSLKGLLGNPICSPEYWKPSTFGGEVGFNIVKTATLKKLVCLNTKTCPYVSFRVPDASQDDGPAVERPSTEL", "experiment": "COX-1 enzyme assay (Cerep)", "assay_type": "biochemical", "details": "human recombinant, arachidonic acid 4 μM", "description": "as §1"}, "[7]": {"test_system": "γ-secretase", "experiment": "H4-APP751 cell-based assay for secreted Aβ peptides (sandwich ELISA)", "parameters": "species or system human", "details": "H4-APP751 cells, up to 3 μM", "quoted_text": "Human neuroglioma H4 cells (ATCC, Manassas, VA) were transfected with a pcDNA3.1 (Invitrogen, Carlsbad, CA) plasmid expressing human wild type APP751 cDNA; and a stable cell line was generated using G418 (Invitrogen) selection [55]. Prior to experimentation, H4-APP751 cells were maintained in Dulbecco’s modified Eagle’s high glucose medium with 10% fetal bovine serum, 1% penicillin-streptomycin, 2 mM L-glutamine, and 0.4 mg/mL G418. All culture reagents were from Invitrogen.\nPlates were incubated overnight (16–18 h) and supernatant was removed for quantification of Aβ peptides by sandwich ELISA. Cytotoxicity was evaluated using CellTiter 96® AQueous One Solution Cell Proliferation Assay (MTS Assay, Promega, Madison, WI) according to the manufacturer’s protocol.\nAβ peptide levels were quantified by sandwich ELISA. […]\nFreshly collected samples of cultured cell supernatant or synthetic peptides (American Peptide Co., Sunnyvale, CA or California Peptide Research, Inc., Napa, CA) for standard curves were diluted with media, and loaded into anti-Aβ antibody-coated plates and incubated at 4°C for about 24 h. Aβ peptides were detected with the 4G8 antibody (Aβ, aa 17–24) conjugated to horseradish peroxidase (Covance, Inc., Princeton, NJ), and SureBlue 3,3’,5,5’-tetramethylbenzidine (TMB) peroxidase substrate (KPL, Inc., Gaithersburg, MA). […]"}, "[8]": {"test_system": "HEK293 cells", "experiment": "CellTiter-Blue cell viability in HEK293 cells expressing NotchΔE", "assay_type": "cell-based, human", "details": "up to 30 μM"}},
  "note": "Where two headings read alike, the source gives them in different places. Marks after values point to notes of the source that are not given here.",
  "data": [
    {"smiles": "O=C(O)[C@H](CC1CCC1)c1cc(Cl)c(OCC(F)(F)F)c(-c2ccc(C(F)(F)F)cc2)c1", "note": "[EVP-0015962, (R)-2-(5-chloro-6-(2,2,2-trifluoroethoxy)-4’-(trifluoromethyl)biphenyl-3-yl)-3-cyclobutylpropanoic acid]", "values": [
      {"measurement": "6E10 Aβ plaque Number/mm^2", "setting": "[1]; hippocampus, 20 mg/kg/day", "value": "61.0 (12.2)* percent of control"},
      {"measurement": "6E10 Aβ plaque Size (μm^2)", "setting": "[1]; hippocampus, 20 mg/kg/day", "value": "99.4 (15.7) percent of control"},
      {"measurement": "6E10 Aβ plaque percent area", "setting": "[1]; hippocampus, 20 mg/kg/day", "value": "62.1 (13.2)* percent of control"},
      {"measurement": "ThioflavinS Aβ plaque Number/mm^2", "setting": "[1]; hippocampus, 20 mg/kg/day", "value": "55.2 (15.6)* percent of control"},
      {"measurement": "ThioflavinS Aβ plaque Size (μm^2)", "setting": "[1]; hippocampus, 20 mg/kg/day", "value": "56.5 (16.3) percent of control"},
      {"measurement": "ThioflavinS Aβ plaque percent area", "setting": "[1]; hippocampus, 20 mg/kg/day", "value": "40.7 (16.9)** percent of control"},
      {"measurement": "6E10 Aβ plaque Number/mm^2", "setting": "[1]; hippocampus, 60 mg/kg/day", "value": "53.9 (16.8)* percent of control"},
      {"measurement": "6E10 Aβ plaque Size (μm^2)", "setting": "[1]; hippocampus, 60 mg/kg/day", "value": "104.1 (11.6) percent of control"},
      {"measurement": "6E10 Aβ plaque percent area", "setting": "[1]; hippocampus, 60 mg/kg/day", "value": "53.1 (15.2)* percent of control"},
      {"measurement": "ThioflavinS Aβ plaque Number/mm^2", "setting": "[1]; hippocampus, 60 mg/kg/day", "value": "50.7 (12.8)* percent of control"},
      {"measurement": "ThioflavinS Aβ plaque Size (μm^2)", "setting": "[1]; hippocampus, 60 mg/kg/day", "value": "58.9 (27.0) percent of control"},
      {"measurement": "ThioflavinS Aβ plaque percent area", "setting": "[1]; hippocampus, 60 mg/kg/day", "value": "27.3 (6.5)** percent of control"},
      {"measurement": "6E10 Aβ plaque Number/mm^2", "setting": "[1]; neocortex, 20 mg/kg/day", "value": "65.2 (8.8) percent of control"},
      {"measurement": "6E10 Aβ plaque Size (μm^2)", "setting": "[1]; neocortex, 20 mg/kg/day", "value": "105.5 (8.8) percent of control"},
      {"measurement": "6E10 Aβ plaque percent area", "setting": "[1]; neocortex, 20 mg/kg/day", "value": "69.2 (9.7) percent of control"},
      {"measurement": "ThioflavinS Aβ plaque Number/mm^2", "setting": "[1]; neocortex, 20 mg/kg/day", "value": "64.3 (8.0) percent of control"},
      {"measurement": "ThioflavinS Aβ plaque Size (μm^2)", "setting": "[1]; neocortex, 20 mg/kg/day", "value": "87.8 (12.2) percent of control"},
      {"measurement": "ThioflavinS Aβ plaque percent area", "setting": "[1]; neocortex, 20 mg/kg/day", "value": "64.3 (14.3) percent of control"},
      {"measurement": "6E10 Aβ plaque Number/mm^2", "setting": "[1]; neocortex, 60 mg/kg/day", "value": "71.3 (15.0) percent of control"},
      {"measurement": "6E10 Aβ plaque Size (μm^2)", "setting": "[1]; neocortex, 60 mg/kg/day", "value": "88.5 (5.4) percent of control"},
      {"measurement": "6E10 Aβ plaque percent area", "setting": "[1]; neocortex, 60 mg/kg/day", "value": "65.3 (16.3) percent of control"},
      {"measurement": "ThioflavinS Aβ plaque Number/mm^2", "setting": "[1]; neocortex, 60 mg/kg/day", "value": "59.6 (14.1) percent of control"},
      {"measurement": "ThioflavinS Aβ plaque Size (μm^2)", "setting": "[1]; neocortex, 60 mg/kg/day", "value": "58.1 (10.6)* percent of control"},
      {"measurement": "ThioflavinS Aβ plaque percent area", "setting": "[1]; neocortex, 60 mg/kg/day", "value": "29.9 (7.3)* percent of control"},
      {"measurement": "levels of Aβ40 in the cell-free assay", "setting": "[2]", "value": "without affecting"},
      {"measurement": "IC50", "setting": "[3]", "value": "5.56 ± 0.51", "unit": "µM"},
      {"measurement": "percent inhibition for COX-2", "setting": "[4]", "value": 56, "unit": "%"},
      {"measurement": "genotype-associated deficit in percent freezing (CFC)", "setting": "[5]; 20 or 60 mg/kg/day in food, 11 weeks (p < 0.01)", "value": "reversed"},
      {"measurement": "genotype-associated deficit in percent freezing (CFC)", "setting": "[5]; single dose 30 mg/kg p.o., 3 h prior to training", "value": "did not reverse this deficit"},
      {"measurement": "IC50", "setting": "[6]", "value": "> 10", "unit": "µM"},
      {"measurement": "levels of AβTotal", "setting": "[7]", "value": "remained unchanged"},
      {"measurement": "cell viability", "setting": "[8]", "value": "did not affect"}
    ]}
  ]
}
